Test results: patent US4526894A, “Pharmaceutically active 4-hydroxy-3-benzoyl-2-quinolone derivatives” (Nippon Shinyaku Co. Ltd., priority 1982, dated 1985)

Key:
[1] = system: passive cutaneous anaphylaxis (DNP-As antigen) in Wister strain rats; assay: passive cutaneous anaphylaxis (PCA) assay in rats; type: in vivo; conditions: 10 mg/kg oral, one hour before antigen; for inhibition in vivo at 10 mg/kg: Rattus norvegicus, po, 1 h, read-out: PCA Inhibition Ratio %
Protocol: (i) Antiserum abundant in homocytotropic antibody is prepared by the same method as Tada and Okumura did (cf. Journal of Immunology, vol. 106, page 1002, 1976). Thus, 1 mg (calculated as an amount of protein) of DNP-As (2,4-dinitrophenyl-coupled ascaris extract) prepared by methods of Strejan and Campbell (Journal of Immunology, vol. 98, p. 893, 1971) and of Eisen (Journal of Amer. Chem. Soc., vol. 85, p 4593, 1953) and 1×10^10pertussis vaccine are administered to each paw of Wister strain rats (180 to 200 grams body weights) by dividing the dose by four. Five days later, 0.5 mg of DNP-As is administered into muscle of back. Eight days later from the initial immunization, blood is taken from descending aorta under anesthetizing with ether, the resulting serum is stored at -80° and is melted before use.
(ii) Effect of tested compounds is investigated as follows:
Anti-serum obtained by the method (i) is diluted with physiological saline solution double by double successively and 0.05 ml of each diluted solution is administered into back of Wister strain rats (140 to 160 grams body weight) subcutaneously. After 72 hours, a solution of 2 mg (calculated as protein) of DNP-As and 2.5 mg of Evans Blue dissolved in 1 ml of physiological saline solution is administered intraveously at a dose of 5 ml/kg. After 30 minutes from antigen solution administration, the animals are killed and diameters of blue spots appeared at the place where antiserum is administered are measured. The PCA test is conducted by the same method as already described using a diluted solutions of antiserum which always show 10 mm or more of spot diameters and the effect of the test compounds is judged. Thus antiserum diluted solutions are administered to two places in back. Test compounds are administered orally at the dose of 10 mg/kg one hour before administration of antigen solution. From the skin of reacted parts of killed animals, leaked or emitted dyestuff is extracted and the amount of the dyestuff is measured. The inhibition ratio is calculated by the following expression:
Inhibition Ratio=(1-A'/A)×100
in which A' is an amount of dyestuff in the group treated with the test compounds and A is that in the control group.

[2] = system: SRS-A (slow reacting substance of anaphylaxis); assay: Anti-SRS-A action using isolated ileus of guinea pigs
Protocol: Anti-SRS-As action (An anti-action against slow reacting substance of anaphylaxis).
Hartley strain male guinea pigs (300 to 350 grams body weight) are killed and 1.0 to 1.5 cm of ileus is immeidiately excised from ileocecal parts and is suspended in 10 ml of Tyrode solution (95% O2 -5% CO2 saturation) containing 10^-7 g/ml of atropine and 10^-6 g/ml of pyrilamine. SRS-A (20 units) (the amount of SRS-A showing the same shrinkage as 5 ng of histamine is defined as 1 unit) prepared by using sensitized guinea pig lung is given to cause shrinkage there. Then antagonistic action of test compounds treated five minutes ago against the shrinkage is measured and recorded via isotonic transducer.
Inhibition Ratio of Test Compd (%)=(1-A'/A)×100
in which A' is a height of shrinkage of SRS-A+test compound and A is that of SRS-A.

[3] = system: male mice; assay: Acute oral toxicity in mice (lethal ratio); type: in vivo; conditions: 400 mg/kg oral, two weeks, four mice per group
Protocol: Acute toxicity was determined two weeks after oral administration of 400 mg/kg to male mice. Four mice (denominator) are used in each group and the dead numbers are given as the numerator. The compounds of the present invention show little, if any, toxicity.
Lethal ratios for all other compounds are 0/4 at doses of […]. It is therefore apparent that they are all safe compounds.

[4] = system: carrageenin edema in SD-strain rats; assay: Carrageenin edema at hind foot of rats (anti-inflammatory action); type: in vivo, rat; conditions: Rattus norvegicus, po, 3 h, 200 mg/kg per os one hour before carrageenin; 3 hours after; read-out: % Inhibition of carrageenin edema
Protocol: The anti-inflammatory action of the compounds of the present invention were evaluated by measuring the inhibition against carrageein edema as set forth below.
Carrageenin edema at hind foot of rats:
SD-strain rats of body weights of around 150 grams were used, each group consisting of five rats. A solution (0.1 ml) of 0.5% carrageenin dissolved in physiological saline water was hypodermically injected into right hind foot pat of the rats and, one hour prior to the injection of carrageenin, 200 mg/kg of test compound was given per os. Foot volumes of the rats before the carrageenin treatment and those of three hours after the treatment were measured and the differences were compared with those of the control group to determine the effect of the compounds.

[5] = system: allergic asthma; conditions: cited from earlier work
[6] = 10^-6 M; guinea pig ileus, SRS-A 20 units; 5 min, 1 µM

| Compound | inhibition in vivo at 10 mg/kg [1] [%] | SRS-A Inhibition Ratio % [2, 6] [%] | Lethal Ratio (dead/treated) [3] | inhibition in vivo at 200 mg/kg [4] [%] | PCA Inhibition Ratio % ([1]; rat, 10 mg/kg) [%] | SRS-A Inhibition Ratio % ([2]; 10^-6 M, guinea pig ileus, SRS-A 20 units, 5 min, 1 µM) [%] | SRS-A Inhibition Ratio % (value in parentheses) ([2]; 10^-7 M; guinea pig ileus, SRS-A 20 units; 5 min, 0.1 µM) [%] | duration of action (in words) ([5]; in vivo) | effect on allergic asthma (in words) ([5]; in vivo) | effect on oral administration (in words) ([5]; oral administration) |
| --- | --- | --- | --- | --- | --- | --- | --- | --- | --- | --- |
| O=C(c1ccc([N+](=O)[O-])cc1)c1c(O)c2ccccc2[nH]c1=O [Example 47, 4-hydroxy-3-(4-nitrobenzoyl)-2-quinolone] | 49.4 | 22.0 | 0/4 |  |  |  |  |  |  |  |
| Cc1cccc2c(O)c(C(=O)c3ccccc3)c(=O)[nH]c12 [Example 19, 3-benzoyl-4-hydroxy-8-methyl-2-quinolone] | 29.6 | 19.0 | 0/4 | 70 |  |  |  |  |  |  |
| CCCCCCc1ccc2[nH]c(=O)c(C(=O)c3ccccc3)c(O)c2c1 [Example 23, 3-benzoyl-6-n-hexyl-4-hydroxy-2-quinolone] |  |  | 0/4 | 15.9 | 13.1 | 83.3 | 32.8 |  |  |  |
| O=C(c1ccccc1)c1c(O)c2ccc([N+](=O)[O-])cc2[nH]c1=O [Example 10, 3-benzoyl-4-hydroxy-7-nitro-2-quinolone] | 33.4 | 22.3 | 0/4 |  |  |  |  |  |  |  |
| O=C(O)c1cc(=O)c2c(OCC(O)COc3cccc4oc(C(=O)O)cc(=O)c34)cccc2o1 [Sodium chromoglicate] |  |  |  |  |  |  |  | rather short | effective for allergic asthma | does not show any effect on oral administration |
